What was measured:
[1] = system: SHV-2 beta lactamase (Escherichia coli); type: biochemical
Protocol: (§1) The reagent mix was prepared as a 2× concentrated solution. The 2× concentrated reagent mix contained 50 mM HEPES (pH 7.0 to 7.2), 0.2 mM ZnCl2, 8 mM ATP, 10 mM DTT, 0.1 mM Coenzyme A, 5 micrograms/mL luciferase, 0.01 mM Cephalosporin-O-Luciferin, 0.1 mg/mL BSA, 8 mM CaCl2, 30 mM MgCl2, and 1% Triton X-100. Cephalosporin-O-Luciferin was used as a beta lactamase substrate. This substrate was synthesized and purified according to a procedure published in a scientific article (Angew. Chem. Int. Ed. 2007 Vol. 46, pp. 7031-7034), which is cited here solely as a reference.
(§2) Genes encoding five species of beta lactamase were synthesized and cloned into an E. coli expression vector. The E. coli cells transformed with the expression vector containing the gene encoding a beta lactamase was induced to express the enzyme. The cells were then pelleted, suspended in a sample buffer (Fisher Scientific Cat. No. 90084) and sonicated to lyse the cells.
(§3) 2× concentrated reagent mixes were prepared. The 2× reagent mix without a beta lactamase inhibitor or antibiotic (Reagent Mix I) was prepared according to the composition provided in Example 6. The 2× concentrated reagent mix containing a beta lactamase inhibitor or imipenem (Reagent Mix IIb) was prepared by supplementing the Reagent Mix I with 64 micrograms/mL of clavulanate (Reagent Mix IIa) or 64 micrograms/mL of imipenem (Reagent Mix IIb).
(§4) Reactions were carried out by diluting 50 microliters of 2× reagent mixes into 45 microliters of deionized water, followed by addition of 5 microliters of cell lysate. […] Light signal was measured using a luminometer after 15 min incubation at room temperature. The signal in Reagent Mix I was used to detect the presence of beta lactamase in the sample by comparing the signal in the reaction to that of negative controls while the signal ratio was used to determine the resistance of the beta lactamase to clavulanate or imipenem.
(§5) In this example, the signal ratios were expressed as R-Factor values, which were calculated as follows: R-Factor=10×(Reagent Mix II Signal÷Reagent Mix I Signal)

SHV-2 beta lactamase = SHV-2 beta lactamase (Escherichia coli, UniProt P0A9Z7); type: biochemical
Protocol: as §1, §2, §3, §4, §5

p99 beta lactamase = p99 beta lactamase (Enterobacter cloacae, UniProt P05364); type: biochemical
Protocol: as §1, §2, §3, §4, §5

KPC-2 beta lactamase = KPC-2 beta lactamase (Klebsiella pneumoniae, UniProt Q9F663); assay: Beta lactamase luminescent assay with inhibitor reagent mixes; type: biochemical; settings: 64 micrograms/mL in 2× mix, lysate dilution 1:10
Protocol: as §1, §2, §3, §4, §5

[2] = molecular target: New Deli Metallo-beta lactamase (NDM-2) (Klebsiella pneumoniae, UniProt C7C422, P28A); assay: as above; type: biochemical; settings: 64 micrograms/mL in 2× mix, lysate dilution 1:2
Protocol: as §1, §2, §3, §4, §5

TEM-2 beta lactamase = TEM-2 beta lactamase (Escherichia coli, UniProt P62593, Q37K); assay: as above; type: biochemical
Protocol: as §1, §2, §3, §4, §5

[3] = system: beta lactamase of patient isolate colony; assay: Clavulanate resistance using a single bacterial colony
Protocol: (§6) As described in EXAMPLE 7, the assay consisted of two reagents, Reagent Mix I and Reagent Mix II, where Reagent Mix I contained one master mix without clavulanate while Reagent Mix II contained a master mix with clavulanate. In this example, reagent mixes equivalent to 0.25 mL of the master mixes were lyophilized in test tubes.
(§7) Patient samples were cultured overnight on an agar plate. A single colony was suspended in 2.5 mL sample buffer as described in EXAMPLE 7, of which 0.25 mL was added to Reagent Mixes I and II vials. After incubation at room temperature for 15 min, the reagent vials were inserted into a luminometer for signal measurement.

[4] = system: beta lactamase of patient isolate colony; assay: as above; remark: listed apart in the source
Protocol: as §6, §7

[5] = system: beta lactamase of patient isolate colony; assay: as above; remark: listed apart in the source
Protocol: as §6, §7

[6] = system: beta lactamase of patient isolate colony; assay: as above; remark: listed apart in the source
Protocol: as §6, §7

Chain of KPC-2 beta lactamase (Q9F663 25-293 limits assumed): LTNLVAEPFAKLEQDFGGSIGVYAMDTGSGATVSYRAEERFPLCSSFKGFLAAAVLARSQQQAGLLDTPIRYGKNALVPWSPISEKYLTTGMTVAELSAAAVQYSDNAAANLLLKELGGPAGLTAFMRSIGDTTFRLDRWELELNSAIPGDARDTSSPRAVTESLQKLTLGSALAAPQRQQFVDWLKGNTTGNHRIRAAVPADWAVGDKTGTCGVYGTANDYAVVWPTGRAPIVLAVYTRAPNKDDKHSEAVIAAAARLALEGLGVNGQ
Chain of New Deli Metallo-beta lactamase (NDM-2) (C7C422 29-270 P28A (numbered from the first residue shown)): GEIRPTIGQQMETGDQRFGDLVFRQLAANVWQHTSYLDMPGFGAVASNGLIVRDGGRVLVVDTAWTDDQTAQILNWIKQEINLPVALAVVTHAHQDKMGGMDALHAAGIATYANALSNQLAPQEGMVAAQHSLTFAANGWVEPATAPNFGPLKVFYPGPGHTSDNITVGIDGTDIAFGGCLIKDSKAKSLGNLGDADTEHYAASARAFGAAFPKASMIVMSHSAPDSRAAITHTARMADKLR
Chain of SHV-2 beta lactamase (P0A9Z7 22-286): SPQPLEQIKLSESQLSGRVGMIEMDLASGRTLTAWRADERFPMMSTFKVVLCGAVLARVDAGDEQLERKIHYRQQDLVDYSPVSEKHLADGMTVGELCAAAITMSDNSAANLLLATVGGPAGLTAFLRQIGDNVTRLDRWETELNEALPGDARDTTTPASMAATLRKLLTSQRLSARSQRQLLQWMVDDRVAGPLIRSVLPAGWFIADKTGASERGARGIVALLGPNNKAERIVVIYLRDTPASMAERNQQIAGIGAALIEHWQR
Chain of p99 beta lactamase (P05364 21-381): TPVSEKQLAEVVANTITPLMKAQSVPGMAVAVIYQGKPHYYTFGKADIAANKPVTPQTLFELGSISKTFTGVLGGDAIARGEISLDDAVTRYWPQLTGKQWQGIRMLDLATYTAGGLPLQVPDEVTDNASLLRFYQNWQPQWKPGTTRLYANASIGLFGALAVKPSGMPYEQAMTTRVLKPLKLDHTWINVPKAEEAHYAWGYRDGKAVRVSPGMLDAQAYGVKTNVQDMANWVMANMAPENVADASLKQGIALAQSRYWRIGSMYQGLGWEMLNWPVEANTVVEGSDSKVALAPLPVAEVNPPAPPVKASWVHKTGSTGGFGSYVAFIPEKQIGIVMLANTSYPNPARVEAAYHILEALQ
Chain of SHV-2 beta lactamase (Escherichia coli) (P0A9Z7 22-286): as the sequence (P0A9Z7 22-286) above

With O=C(O)[C@H]1/C(=C/CO)O[C@@H]2CC(=O)N21 [Clavulanate, clavulanate] the R-Factor [1] was 0.23, the “S/N (Signal to Noise Ratio) in inhibitor-containing reagent mix” value (SHV-2 beta lactamase) was 1.00 and the “resistance of the beta lactamase to the substance” value (SHV-2 beta lactamase) was “susceptible”. The “S/N (Signal to Noise Ratio) in inhibitor-containing reagent mix” value (p99 beta lactamase) was 48.00, the R-Factor (KPC-2 beta lactamase) was 8.94 and the “S/N (Signal to Noise Ratio) in inhibitor-containing reagent mix” value (KPC-2 beta lactamase; 15 min) was 40.00. For the same compound, the R-Factor (KPC-2 beta lactamase; listed as clavulanate) was “high”, the R-Factor [2] was 6.02 and the “S/N (Signal to Noise Ratio) in inhibitor-containing reagent mix” value ([2]; 15 min) was 13.00. The R-Factor ([2]; listed as clavulanate) was “high”, the R-Factor (TEM-2 beta lactamase; 64 micrograms/mL in 2× mix, lysate undiluted) was 1.18 and the “S/N (Signal to Noise Ratio) in inhibitor-containing reagent mix” value (TEM-2 beta lactamase; 64 micrograms/mL in 2× mix, lysate undiluted, 15 min) was 5.00. The “resistance of the beta lactamase to the substance” value (TEM-2 beta lactamase; judged from R-Factor) was “susceptible”, the Interpretation ([3]; No. 1, Sample ID 1845) was “susceptible to CA (CA (clavulanate) resistance cutoff R-Factor value: 2.50)” and the R-Factor ([3]; No. 1, Sample ID 1845) was 0.07. For the same compound, the Interpretation ([3]; No. 2, Sample ID 1847) was “susceptible to CA (CA (clavulanate) resistance cutoff R-Factor value: 2.50)”, the R-Factor ([3]; No. 2, Sample ID 1847) was 0.15 and the Interpretation ([3]; No. 20, Sample ID B650) was “susceptible to CA (CA (clavulanate) resistance cutoff R-Factor value: 2.50)”. The R-Factor ([3]; No. 20, Sample ID B650) was 0.11, the Interpretation ([3]; No. 21, Sample ID B671) was “resistant to CA (CA (clavulanate) resistance cutoff R-Factor value: 2.50)” and the R-Factor ([3]; No. 21, Sample ID B671) was 4.12. The Interpretation ([4]; No. 3, Sample ID 1820) was “resistant to CA (CA (clavulanate) resistance cutoff R-Factor value: 2.50)”, the R-Factor ([4]; No. 3, Sample ID 1820) was 3.67 and the Interpretation ([4]; No. 7, Sample ID 1789) was “susceptible to CA (CA (clavulanate) resistance cutoff R-Factor value: 2.50)”. The R-Factor ([4]; No. 7, Sample ID 1789) was 1.14, the Interpretation ([4]; No. 8, Sample ID 1800) was “resistant to CA (CA (clavulanate) resistance cutoff R-Factor value: 2.50)” and the R-Factor ([4]; No. 8, Sample ID 1800) was 11.13. For the same compound, the Interpretation ([4]; No. 13, Sample ID 1962-2) was “resistant to CA (CA (clavulanate) resistance cutoff R-Factor value: 2.50)”, the R-Factor ([4]; No. 13, Sample ID 1962-2) was 15.47 and the Interpretation ([4]; No. 14, Sample ID 1963) was “resistant to CA (CA (clavulanate) resistance cutoff R-Factor value: 2.50)”. The R-Factor ([4]; No. 14, Sample ID 1963) was 19.95, the Interpretation ([5]; No. 5, Sample ID B612) was “susceptible to CA (CA (clavulanate) resistance cutoff R-Factor value: 2.50)” and the R-Factor ([5]; No. 5, Sample ID B612) was 0.27. For the same compound, the Interpretation ([5]; No. 6, Sample ID B616) was “susceptible to CA (CA (clavulanate) resistance cutoff R-Factor value: 2.50)”, the R-Factor ([5]; No. 6, Sample ID B616) was 0.13 and the Interpretation ([6]; No. 17, Sample ID 2015) was “susceptible to CA (CA (clavulanate) resistance cutoff R-Factor value: 2.50)”. For the same compound, the R-Factor ([6]; No. 17, Sample ID 2015) was 1.74, the Interpretation ([6]; No. 18, Sample ID 2022-1) was “susceptible to CA (CA (clavulanate) resistance cutoff R-Factor value: 2.50)” and the R-Factor ([6]; No. 18, Sample ID 2022-1) was 1.31.

Reference: US10041105B2, “Methods and devices for detection of resistance to an enzyme inhibitor” (priority 2014, dated 2018)
